From paper PMC9496155, “Amaryllidaceae Alkaloids Decrease the Proliferation, Invasion, and Secretion of Clinically Relevant Cytokines by Cultured Human Colon Cancer Cells” (Biomolecules, 2022)

How the values were obtained:
HT-29 = assay: MTT viability assay, HT-29; type: cell-based, human; details: 72 h of exposure, TP53 mutant, mean of six replicates of one experiment, read-out: IC50 Cancer Cell Lines (C) HT-29
Procedure: (§1) HCT-116 (CCL-247), LoVo (CCL-229), DLD-1 (CCL-221), HT-29 (HTB-38) and CoN (CCD-841) human CRC cells were obtained from the ATCC (Manassas, VA, USA). HCT-116 cells were cultured in Dulbecco’s Modified Eagle’s Medium (DMEM; Corning Cellgro, Corning, NY, USA) for the invasion assays or RPMI-1640 medium (Lonza, Westburg, The Netherlands) for all other assays. The LoVo, DLD-1, and HT-29 cell lines were grown in RPMI-1640 for all experiments. Media were supplemented with 10% fetal bovine serum (FBS; Gibco, Waltham, MA, USA or Greiner Bio-One, Vilvoorde, Belgium), 100 U/mL penicillin, and 100 µg/mL streptomycin (Gibco, Waltham, MA). Cells were grown at 37 °C and 5% CO2 in a humidified atmosphere. The CoN cells were cultured in Eagle’s Minimum Essential Medium (Lonza, Westburg, The Netherlands) supplemented with 10% FBS (South America origin, Greiner Bio-One, Vilvoorde, Belgium). HCT-116 p53^-/- cells were obtained from Denis L.J. LaFontaine, Université Libre de Bruxelles, Brussels, Belgium.
(§2) Effects of compounds on viability were assessed by means of 3-(4,5-dimethylthiazol-2-yl)-2,5-diphenyltetrazolium bromide (MTT; Sigma-Aldrich, Diegem, Belgium) colorimetric assay as previously reported. Briefly, cells were seeded in flat-bottom 96-well plates at the appropriate cell density 24 h prior to the exposure or not to the compound of interest. Each compound was first solubilized in dimethylsulfoxide (DMSO) at 10^−2 M concentration and further diluted in a serial manner in the culture medium. Nine concentrations ranging from 10 nM to 100 µM were tested in sextuplicate within the assay. Evaluation of the cell viability was conducted after 72 h of exposure to the compound by means of MTT assay.

IL-8 = assay: Luminex assay of IL-8 in HCT-116 and LoVo cell supernatants; type: cell-based, human; details: HCT-116 cells; NAR 80 nM; 24 h; in comparison to LYC
Excerpt: (§3) We ordered a customized Luminex® assay to quantify 15 targets at once from Biotechne (reference LXSAHM-15; R&D Systems, Abingdon, U.K.). The 15 targets were chosen on the basis of the literature as follows: the relevant metalloproteinases MMP-1, -2, -7, -9, -13 [49] and the cytokines associated with dismal prognosis or shorter disease-free survival period: C-C motif chemokine ligand (CCL) -4, CCL-22, Flt-3 ligand, IL-1β, IL-2, IL-6, IL-8, interferon gamma (IFNγ), vascular endothelial growth factor (VEGF), and pentraxin-3 [50]. Samples were prepared as follows: HCT-116 or LoVo cells were seeded in 6-well plates and allowed to adhere and grow until they reached 70% confluency. The culture medium was replaced by 1.5 mL of culture medium containing only 0.5% of FBS with or without the compounds to be tested (NAR at 80 nM, LYC at 6 µM, and HAE at 6 µM). After 24 h of treatment, supernatants were collected, aliquoted, and kept frozen at −80 °C. Three independent series of samples were prepared. […] We thus decided to concentrate several aliquots of our supernatant samples by centrifugation of 500 µL of supernatant with Amicon Ultra 0.5 mL filters characterized by a 3 kDa cut-off (UFC500324; Millipore, Merck, Hoeilaart, Belgium) leading to a final volume of 150 µL (3.3 times concentrated). The Luminex® assay was conducted according to manufacturer’s recommendations. […]

[1] = test system: subpanel of CRC cell lines; details: NCI DTD 60 cell line screen; cited from earlier work
HCT-116 cells [2] = assay: Invasion assay, Matrigel-coated Boyden chambers, HCT-116; type: cell-based, human; details: 24 h, corrected for adherent cells
Procedure: Prior to seeding HCT-116 cells in the invasion chambers, the medium was removed and cells were washed twice with phosphate buffered saline and incubated in DMEM lacking FBS for 48 h before seeding at a density of 1 × 10^5 cells/well into the upper portion of Matrigel-coated invasion chambers (Corning Biocoat, Corning, NY, USA), as described previously by our group in [47, 48]. The upper portion of each chamber contained cells suspended in serum-free DMEM containing DMSO vehicle alone or increasing concentrations of the Amaryllidaceae alkaloids NAR, LYC, and HAE. […] The lower portion of each chamber contained DMEM supplemented with 10% FBS. The FBS served as a chemoattractant. A polyethylene terephthalate (PET) membrane, containing 8 μm pores and coated with Matrigel basement membrane matrix, separated the upper and lower portions of the invasion chamber. After 24 h, chambers were removed and the cells that had not invaded were removed from within the chamber using a cotton swab. The cells that had invaded through and adhered to the bottom of the PET membrane separating the chambers were fixed with methanol and stained with 0.5% crystal violet (Sigma-Aldrich, St. Louis, MO, USA). Five random images were taken of the bottom of each membrane using a Cytation 5 Cell Imaging Multi-Mode Reader (Winooski, VT, USA). The cells in each image were counted using Image J (NIH, Bethesda, MD, USA).
To correct for the inhibitory effects of the Amaryllidaceae alkaloids on cell proliferation, cells from the same biological repeat were seeded in parallel in 24-well tissue culture plates at a density of 1 × 10^5 cells/well in DMEM containing 5% FBS (the average of the FBS concentrations in the upper and lower chambers) and supplemented with vehicle or increasing concentrations of the alkaloids. These wells were not coated with Matrigel. The medium was removed, and the adherent cells were trypsinized and counted 24 h after treatment using a hemocytometer. To compare cell invasion across treatments, cell invasion was corrected for adherent cell proliferation and expressed as % vehicle control.

VEGF = assay: Luminex assay of VEGF in HCT-116 and LoVo cell supernatants; type: cell-based, human; details: 0.08 µM; 24 h; both cell lines
Excerpt: as §3

LoVo cells = assay: Adhesion assay (crystal violet), LoVo; type: cell-based, human; details: 0.08 µM, 15 h, 0.5% FBS, one experiment
Procedure: (§4) To evaluate the effects of the compounds on cell adhesion, 75000 HCT-116 or LoVo cells per well were seeded in 96-well flat-bottom plates in the presence or absence of each compound tested at three concentrations. In the first set of experiments, cells were allowed to adhere for 1, 5, 8, and 24 h and cultured with 10% FBS. Three independent experiments were performed each in sextuplicate to examine the time course of adhesion when grown with 10% FBS and increasing concentrations of each compound. In the second set of experiments cells were allowed to adhere for 15 h in a medium containing only 0.5% FBS to limit the contribution of proliferation to the results.
(§5) At the end of the incubation period, the plate was rinsed with phosphate buffered saline (PBS), fixed with 17.5% of formaldehyde at 4 °C for 15 min, and washed with deionized water twice before staining with 0.1% crystal violet (Sigma-Aldrich, Diegem, Belgium) in a 50:50 methanol/water mixture for 15 min. After extensive washes with water to remove any free crystal violet, the dye within the cells was extracted and solubilized in 100 µL of a 33% acetic acid solution and absorbance was measured at 570 nm (680XR, Bio-Rad Laboratories, Berkeley, CA, USA; reference wavelength 610 nm). The mean absorbance of the untreated control well was set at 100% for comparison. […]

MMP-1, -2, -7, -9, -13 = assay: Luminex assay of MMP secretion in HCT-116 and LoVo cell supernatants; type: cell-based, human; details: 0.08 µM; 24 h; both cell lines (HCT-116, LoVo)
Excerpt: We ordered a customized Luminex® assay to quantify 15 targets at once from Biotechne (reference LXSAHM-15; R&D Systems, Abingdon, U.K.). The 15 targets were chosen on the basis of the literature as follows: the relevant metalloproteinases MMP-1, -2, -7, -9, -13 [49] and the cytokines associated with dismal prognosis or shorter disease-free survival period: C-C motif chemokine ligand (CCL) -4, CCL-22, Flt-3 ligand, IL-1β, IL-2, IL-6, IL-8, interferon gamma (IFNγ), vascular endothelial growth factor (VEGF), and pentraxin-3 [50]. Samples were prepared as follows: HCT-116 or LoVo cells were seeded in 6-well plates and allowed to adhere and grow until they reached 70% confluency. The culture medium was replaced by 1.5 mL of culture medium containing only 0.5% of FBS with or without the compounds to be tested (NAR at 80 nM, LYC at 6 µM, and HAE at 6 µM). After 24 h of treatment, supernatants were collected, aliquoted, and kept frozen at −80 °C. Three independent series of samples were prepared. […] We thus decided to concentrate several aliquots of our supernatant samples by centrifugation of 500 µL of supernatant with Amicon Ultra 0.5 mL filters characterized by a 3 kDa cut-off (UFC500324; Millipore, Merck, Hoeilaart, Belgium) leading to a final volume of 150 µL (3.3 times concentrated). The Luminex® assay was conducted according to manufacturer’s recommendations. Data were collected on a Bioplex-200 (Bio-Rad, Temse, Belgium).

HCT-116^-/- = assay: MTT viability assay, HCT-116-/- (p53-null); type: cell-based, human; details: 72 h of exposure, mean of six replicates of one experiment, read-out: IC50 Cancer Cell Lines (C) HCT-116-/-
Procedure: as §1, §2

HCT-116 cells [3] = assay: Adhesion assay (crystal violet), HCT-116; type: cell-based, human; details: 0.08 µM, 15 h, 0.5% FBS, one experiment
Procedure: as §4, §5

HCT-116^+/+ = assay: MTT viability assay, HCT-116+/+; type: cell-based, human; details: 72 h of exposure, functional p53, mean of six replicates of one experiment, read-out: IC50 Cancer Cell Lines (C) HCT-116+/+
Procedure: as §1, §2

CoN = assay: MTT viability assay, CoN normal colon epithelial cell line; type: cell-based, human; details: 72 h of exposure, mean of six replicates of one experiment, read-out: IC50 Normal Cell Line (N) CoN
Procedure: as §1, §2

DLD-1 = assay: MTT viability assay, DLD-1; type: cell-based, human; details: 72 h of exposure, TP53 mutant, mean of six replicates of one experiment, read-out: IC50 Cancer Cell Lines (C) DLD-1
Procedure: as §1, §2

[4] = test system: Cancer Cell Lines (LoVo, HCT-116^+/+, HCT-116^-/-, HT-29, DLD-1); assay: MTT viability assay, mean over the five colon cancer cell lines and ratio to CoN; type: cell-based, human; details: for Ratio N/C: IC50 CoN / mean IC50 cancer cells; for IC50: mean over five cancer cell lines, MTT, 72 h, read-out: Mean IC50 Cancer Cells
Procedure: as §1, §2

LoVo = assay: MTT viability assay, LoVo; type: cell-based, human; details: 72 h of exposure, TP53 wild type, mean of six replicates of one experiment, read-out: IC50 Cancer Cell Lines (C) LoVo
Procedure: as §1, §2

Row | Compound | IC50 (HT-29) | IL-8 levels (IL-8) | GI50 [1] | cell invasion, % of vehicle control (HCT-116 cells [2]; 0.04 µM) | cell invasion, % of vehicle control (HCT-116 cells [2]; 0.08 µM) | VEGF levels, times decreased (VEGF) | maximal inhibition of cell adhesion (LoVo cells) | secretion of MMP-1, -2, and -7 (MMP-1, -2, -7, -9, -13) | IC50 (HCT-116^-/-) | inhibition of cell adhesion (HCT-116 cells [3]) | IC50 (HCT-116^+/+) | IC50 (CoN) | IC50 (DLD-1) | Ratio N/C [4] | times more potent than PANC ([4]; MTT IC50 comparison NAR vs PANC) | IC50 [4] | IC50 (LoVo) | times less toxic toward non-cancerous cells ([4]; mean IC50s of cancer cell lines vs CoN cell line)
1 | O=C1N[C@@H]2C(=C[C@H](O)[C@@H](O)[C@H]2O)c2cc3c(c(O)c21)OCO3 [NAR, narciclasine] | 32 nM | opposite effects | 45.7 nM | 41.1 ± 4.3% | 13.6 ± 4.8% | up to 5 times | 18% | markedly decrease | 29 nM | 39% | 23 nM | 1100 nM | 30 nM | 32 | 10 times | 33 nM | 52 nM | –
2 | N.N.[Cl][Pt][Cl] [Cisplatin, cisplatin, reference compound] | 22100 nM | – | – | – | – | – | – | – | 17500 nM | – | 4500 nM | 67000 nM | 14800 nM | 5 | – | 13500 nM | 8400 nM | 5 times
